Data taken from patent US20060241172A1, “Benzodioxane and benzodioxolane derivatives and uses thereof” (Wyeth, priority 2005, published 2006).
Where a name gives a salt, the structure may show the parent alone.

test system: not given; test: not given; conditions: not given

| SMILES | melting point [°C] |
| --- | --- |
| NC[C@H]1Oc2cc(F)cc(-c3c(Cl)cccc3Cl)c2O1 (as salt: hydrochloride) [Compound I-85, 1-[(2S)-4-(2,6-dichlorophenyl)-6-fluoro-1,3-benzodioxol-2-yl]methanamine] | 224 to 225 |
| NC[C@@H]1Oc2cc(F)cc(-c3c(Cl)cccc3Cl)c2O1 (as salt: hydrochloride) [Compound I-86, 1-[(2R)-4-(2,6-dichlorophenyl)-6-fluoro-1,3-benzodioxol-2-yl]methanamine] | 206 to 208 |
| COc1ccccc1-c1cc(Cl)cc2c1OC(CN)O2 (stereo not drawn) (as salt: hydrochloride) [Compound I-92, [6-Chloro-4-(2-methoxy-phenyl)-benzo[1,3]dioxol-2-yl]-methylamine] | 245 to 246 |
| COc1ccc(Cl)cc1-c1cc(Cl)cc2c1OC(CN)O2 (stereo not drawn) (as salt: hydrochloride) [Compound I-94, [6-Chloro-4-(2-methoxy-5-chloro-phenyl)-benzo[1,3]dioxol-2-yl]-methylamine] | 228 to 230 |
| COc1cccc(-c2cc(Cl)cc3c2OC(CN)O3)c1OC (stereo not drawn) (as salt: hydrochloride) [Compound I-95, [6-Chloro-4-(2,3-dimethoxy-phenyl)-benzo[1,3]dioxol-2-yl]-methylamine] | 228 to 230 |
| NCC1Oc2cc(Cl)cc(-c3ccc(Cl)cc3Cl)c2O1 (stereo not drawn) (as salt: hydrochloride) [Compound I-96, [6-Chloro-4-(2,4-dichloro-phenyl)-benzo[1,3]dioxol-2-yl]-methylamine] | > 250 |
| Cc1cc(Cl)ccc1-c1cc(Cl)cc2c1OC(CN)O2 (stereo not drawn) (as salt: hydrochloride) [Compound I-97, [6-Chloro-4-(4-chloro-2-methyl-phenyl)-benzo[1,3]dioxol-2-yl]-methylamine] | > 250 |
| NCC1Oc2cc(Cl)cc(-c3cc(Cl)ccc3Cl)c2O1 (stereo not drawn) (as salt: hydrochloride) [Compound I-98, [6-Chloro-4-(2,5-dichloro-phenyl)-benzo[1,3]dioxol-2-yl]-methylamine] | 246 to 248 |
| NCC1Oc2cc(Cl)cc(-c3cc(F)ccc3F)c2O1 (stereo not drawn) (as salt: hydrochloride) [Compound I-99, [6-Chloro-4-(2,5-difluoro-phenyl)-benzo[1,3]dioxol-2-yl]-methylamine] | > 250 |
| COc1ccc(OC)c(-c2cc(Cl)cc3c2OC(CN)O3)c1 (stereo not drawn) (as salt: hydrochloride) [Compound I-100, [6-Chloro-4-(2,5-dimethoxy-phenyl)-benzo[1,3]dioxol-2-yl]-methylamine] | 225 to 227 |
| NCC1Oc2cc(Cl)cc(-c3ccccc3-c3ccccc3)c2O1 (stereo not drawn) (as salt: hydrochloride) [Compound I-101, [6-Chloro-4-biphenyl-benzo[1,3]dioxol-2-yl]-methylamine] | 196 to 198 |
| NC[C@H]1COc2cccc(-c3c(Cl)cccc3Cl)c2O1 (as salt: salt) [Compound I-46, {[(2S)-8-(2,6-Dichlorophenyl)-2,3-dihydro-1,4-benzodioxin-2-yl]methyl}amine] | 165 to 167 |
| NC[C@H]1COc2cc(F)cc(-c3c(Cl)cccc3Cl)c2O1 (as salt: salt) [Compound I-47, {[(2S)-8-(2,6-Dichlorophenyl)-6-fluoro-2,3-dihydro-1,4-benzodioxin-2-yl]methyl}amine] | 165 to 167 |

Next, values leading:

| melting point [°C] | SMILES |
| --- | --- |
| 197 to 200 | Cc1ccccc1-c1cc(F)cc2c1OC(CN)O2 (stereo not drawn) (as salt: hydrochloride) [Compound I-80, 1-[4-(2-Methyl-phenyl)-6-fluoro-1,3-benzodioxol-2-yl]methanamine] |
| 204 to 205 | NCC1Oc2cc(F)cc(-c3cc(Cl)ccc3Cl)c2O1 (stereo not drawn) (as salt: hydrochloride) [Compound I-81, 1-[4-(2,5-Dichloro-phenyl)-6-fluoro-1,3-benzodioxol-2-yl]methanamine] |
| 178 to 180 | NCC1Oc2cc(F)cc(-c3ccccc3C(F)(F)F)c2O1 (stereo not drawn) (as salt: hydrochloride) [Compound I-82, 1-[4-(2-Trifluoromethyl-phenyl)-6-fluoro-1,3-benzodioxol-2-yl]methanamine] |
| 234 to 235 | NCC1Oc2cc(F)cc(-c3ccccc3F)c2O1 (stereo not drawn) (as salt: hydrochloride) [Compound I-83, 1-[4-(2-Fluoro-phenyl)-6-fluoro-1,3-benzodioxol-2-yl]methanamine] |
| 192 to 194 | NCC1Oc2cc(F)cc(-c3ccccc3Cl)c2O1 (stereo not drawn) (as salt: hydrochloride) [Compound I-84, 1-[4-(2-Chloro-phenyl)-6-fluoro-1,3-benzodioxol-2-yl]methanamine] |
| 132 to 134 | CNCC1Oc2cc(F)cc(-c3ccccc3Cl)c2O1 (stereo not drawn) (as salt: hydrochloride) [Compound I-87, 1-[4-(2-Chlorophenyl)-6-fluoro-1,3-benzodioxol-2-yl]-N-methylmethanamine] |
| 182 to 183 | CCNCC1Oc2cc(F)cc(-c3ccccc3Cl)c2O1 (stereo not drawn) (as salt: hydrochloride) [Compound I-88, N-{[4-(2-Chlorophenyl)-6-fluoro-1,3-benzodioxol-2-yl]methyl}ethanamine] |
| 211 to 212 | CN(C)CC1Oc2cc(F)cc(-c3ccccc3Cl)c2O1 (stereo not drawn) (as salt: hydrochloride) [Compound I-89, 1-[4-(2-chlorophenyl)-6-fluoro-1,3-benzodioxol-2-yl]-N,N-dimethylmethanamine] |
| > 250 | NCC1Oc2cc(Cl)cc(-c3ccccc3Cl)c2O1 (stereo not drawn) (as salt: hydrochloride) [Compound I-90, [6-Chloro-4-(2-chloro-phenyl)-benzo[1,3]dioxol-2-yl]-methylamine] |
| > 250 | Cc1ccccc1-c1cc(Cl)cc2c1OC(CN)O2 (stereo not drawn) (as salt: hydrochloride) [Compound I-91, [6-Chloro-4-(2-methyl-phenyl)-benzo[1,3]dioxol-2-yl]-methylamine] |
| > 250 | NCC1Oc2cc(Cl)cc(-c3ccccc3F)c2O1 (stereo not drawn) (as salt: salt) [Compound I-93, [6-Chloro-4-(2-fluoro-phenyl)-benzo[1,3]dioxol-2-yl]-methylamine] |

biological target: T1, human 5-hydroxytryptamine-2C (h5-HT2C) receptor (Homo sapiens, UniProt P28335); test: 5-HT2C binding: [125I]DOI displacement in membranes of transfected CHO cells; conditions: read-out: 5-HT2C Binding Ki avg
T1 construct: expressed in transfected cells; host or cells: CHO (Chinese Hamster Ovary) cells; membranes
T1 sequence (P28335 33-458): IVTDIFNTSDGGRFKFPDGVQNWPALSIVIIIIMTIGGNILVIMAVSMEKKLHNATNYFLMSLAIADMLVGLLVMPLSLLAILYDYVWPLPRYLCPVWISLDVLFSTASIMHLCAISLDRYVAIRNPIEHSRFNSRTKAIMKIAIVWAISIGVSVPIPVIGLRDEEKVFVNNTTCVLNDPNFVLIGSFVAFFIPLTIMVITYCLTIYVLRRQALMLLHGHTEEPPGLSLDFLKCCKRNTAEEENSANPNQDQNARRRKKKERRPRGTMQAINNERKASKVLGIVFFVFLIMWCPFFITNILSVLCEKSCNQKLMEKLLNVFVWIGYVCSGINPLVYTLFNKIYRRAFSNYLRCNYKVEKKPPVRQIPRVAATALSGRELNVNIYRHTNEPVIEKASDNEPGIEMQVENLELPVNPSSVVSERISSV

| SMILES | Ki [nM] |
| --- | --- |
| C[C@]1(CN)COc2cccc(-c3ccccc3)c2O1 [Compound I-48, {[(2S)-2-Methyl-8-phenyl-2,3-dihydro-1,4-benzodioxin-2-yl]methyl}amine] | > 200 |
| C[C@]1(CN)COc2cccc(-c3cccc(Cl)c3)c2O1 [Compound I-50, {[(2S)-8-(3-Chlorophenyl)-2-methyl-2,3-dihydro-1,4-benzodioxin-2-yl]methyl}amine] | > 200 |
| C[C@]1(CN)COc2cccc(-c3ccc(Cl)cc3)c2O1 [Compound I-51, {[(2S)-8-(4-Chlorophenyl)-2-methyl-2,3-dihydro-1,4-benzodioxin-2-yl]methyl}amine] | > 200 |
| COc1ccccc1-c1cccc2c1O[C@@](C)(CN)CO2 [Compound I-52, {[(2S)-8-(2-Methoxyphenyl)-2-methyl-2,3-dihydro-1,4-benzodioxin-2-yl]methyl}amine] | > 200 |
| C[C@]1(CN)COc2cccc(-c3ccsc3)c2O1 [Compound I-53, {[(2S)-2-Methyl-8-thien-3-yl-2,3-dihydro-1,4-benzodioxin-2-yl]methyl}amine] | > 200 |
| NC[C@H]1COc2cccc(-c3ccccc3Cl)c2O1 [Compound I-56, 1-[(2S)-8-(2-CHLOROPHENYL)-2,3-DIHYDRO-1,4-BENZODIOXIN-2-YL]METHANAMINE] | < 50 |
| Cc1cc(Cl)ccc1-c1cc(Cl)cc2c1O[C@@H](CN)CO2 [Compound I-65, (2S)-[6-Chloro-8-(4-chloro-2-methyl-phenyl)-2,3-dihydro-benzo[1,4]dioxin-2-yl]-methylamine] | < 50 |
| COc1ccc(Cl)cc1-c1cc(Cl)cc2c1O[C@@H](CN)CO2 [Compound I-68, (2S)-[6-Chloro-8-(5-chloro-2-methoxy-phenyl)-2,3-dihydro-benzo[1,4]dioxin-2-yl]-methylamine] | 50 to 200 |
| Cc1ccccc1-c1c(Cl)ccc2c1O[C@@H](CN)CO2 [Compound I-72, ((2S)-7-Chloro-8-o-tolyl-2,3-dihydrobenzo[b][1,4]dioxin-2-yl)methanamine] | < 50 |
| NCC1Oc2cc(F)cc(-c3ccccc3)c2O1 (stereo not drawn) [Compound I-77, 1-(6-Fluoro-4-phenyl-1,3-benzodioxol-2-yl)methanamine] | 50 to 200 |
| NCC1Oc2cc(F)cc(-c3cccc(Cl)c3)c2O1 (stereo not drawn) [Compound I-78, 1-[4-(3-Chlorophenyl)-6-fluoro-1,3-benzodioxol-2-yl]methanamine] | 50 to 200 |
| NCC1Oc2cc(F)cc(-c3ccc(Cl)cc3)c2O1 (stereo not drawn) [Compound I-79, 1-[4-(4-Chloro-phenyl)-6-fluoro-1,3-benzodioxol-2-yl]methanamine] | 50 to 200 |
| COc1ccccc1-c1cc(Cl)cc2c1OC(CN)O2 (stereo not drawn) [Compound I-92, [6-Chloro-4-(2-methoxy-phenyl)-benzo[1,3]dioxol-2-yl]-methylamine] | 50 to 200 |

Continued, values first:

| Ki [nM] | SMILES |
| --- | --- |
| 50 to 200 | CCNCC1Oc2cc(F)cc(-c3ccccc3Cl)c2O1 (stereo not drawn) [Compound I-88, N-{[4-(2-Chlorophenyl)-6-fluoro-1,3-benzodioxol-2-yl]methyl}ethanamine] |
| 50 to 200 | CN(C)CC1Oc2cc(F)cc(-c3ccccc3Cl)c2O1 (stereo not drawn) [Compound I-89, 1-[4-(2-chlorophenyl)-6-fluoro-1,3-benzodioxol-2-yl]-N,N-dimethylmethanamine] |
